Results from publication PMC12040169 (PLOS Biology, 2025).

Tests used:
[1] = tested on: T1, CTL2-GFP (C. trachomatis L2/434/Bu, GFP-expressing); test: microbe, parasite or virus in culture; set-up: Intracellular C. trachomatis growth in HeLa cells, bulk GFP fluorescence relative to DMSO; conditions: Chlamydia trachomatis, HeLa, 28.5 h; bulk GFP, mean of 2; read-out: % of control remaining
T1 construct: L2/434/Bu, GFP-expressing
Protocol: MICs were calculated as described above.

[2] = tested on: T2, C. trachomatis L2/434/Bu expressing GFP (CTL2-GFP); test: microbe, parasite or virus in culture; set-up: C. trachomatis total inclusion area by high-content imaging, normalised to DMSO; conditions: Chlamydia trachomatis, HeLa, 28.5 h; total inclusion area; read-out: % of control remaining
T2 construct: L2/434/Bu GFP intracellular growth in HeLa cells
In short: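 Read-out combines bulk fluorescence and imaging: GFP tracks chlamydial growth, resorufin tracks host cell viability. Plates were then fixed and Hoechst-stained so inclusions and nuclei could be imaged and counted per well.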

in vitro = test: in vitro; set-up: Viability of infected HeLa host cells, resazurin conversion, bulk resorufin fluorescence relative to DMSO; conditions: human, hela cells; bulk resorufin, mean of 2

Row | SMILES | activity at 1 µM [1] | activity at 5 µM [1] | activity at 10 µM [1] | activity at 1 µM [2] | activity at 5 µM [2] | activity at 10 µM [2] | viability at 28.5 h, 1 µM (in vitro) | viability at 28.5 h, 5 µM (in vitro) | viability at 28.5 h, 10 µM (in vitro)
1 | Oc1c(CN2CCN(c3ccc(F)cc3)CC2)cc(Br)c2cccnc12 [CBK268051] | 113% | 46.4% | 37.8% | 119% | 33% | 37.5% | 96.2% | 97.9% | 92.4%
2 | O=C(CCN1CCCCC1)Nc1ccc2c(=O)n3c(nc2c1)/C(=C/c1ccccc1)CC3 [CBK017786] | 142% | 56.7% | 26.3% | 109% | 20.7% | 10.4% | 91.6% | 90.4% | 92.6%
3 | Cc1cc(NS(=O)(=O)c2ccc(Nc3nc(-c4cccs4)cs3)cc2)no1 [CBK262504] | 96.7% | 25.1% | 15.9% | 112% | 45.8% | 19.5% | 86.5% | 92.2% | 88.4%
4 | COc1ccc(-c2csc(/C(C#N)=C/Nc3ccc(S(=O)(=O)Nc4nccs4)cc3)n2)cc1 [CBK262374] | 146% | 131% | 113% | 134% | 95% | 96.5% | 99.9% | 95.6% | 96.2%
5 | CC(C)c1ccc(S(=O)(=O)Nc2cccc(SC(F)(F)F)c2)cc1 [CBK044581] | 113% | 76% | 82.6% | 116% | 69.4% | 80.6% | 96.5% | 95.7% | 103%
6 | COc1cccc(CNc2ccc(N3CCOCC3)cc2)c1OCc1ccccc1F [CBK074406] | 135% | 97.1% | 65.4% | 130% | 63.6% | 41.5% | 86.4% | 83.8% | 90.9%
7 | O=C(CC1CCN(CCc2ccccc2)CC1)Nc1cccc(-n2cccn2)c1 [CBK285951] | 11.3% | 5.45% | 1.48% | 13.7% | 0.475% | 0.166% | 91.7% | 87.4% | 88.6%
8 | COc1nccnc1NS(=O)(=O)c1ccc(Nc2c([N+](=O)[O-])cc([N+](=O)[O-])c3nonc23)cc1 [CBK261441] | 33.2% | 18% | 10.6% | 42.6% | 28.1% | 24.2% | 90.8% | 95.9% | 94.2%
9 | CC(=O)NC[C@H]1CN(c2ccc(C#N)c(C)c2)C(=O)O1 [CBK010393] | 120% | 98% | 55.2% | 102% | 94.2% | 42.5% | 89.7% | 90.3% | 89.8%
10 | O=C(NS(=O)(=O)c1cccc(-c2nnco2)c1)C1CC1C1CCCCC1 (stereo not drawn) [CBK305924] | 129% | 146% | 143% | 120% | 151% | 119% | 91% | 99.4% | 94.7%
11 | Cc1cc(C)c2nc(-c3ccccn3)cc(C(=O)Nc3ccc(S(=O)(=O)Nc4onc(C)c4C)cc3)c2c1 [CBK267775] | 95.8% | 105% | 66.8% | 115% | 111% | 74.8% | 100% | 94.8% | 98.6%
12 | COc1ccc([C@@]23CC[C@@H](NC(=O)c4ccc(-c5ccccc5)cc4)CC2N(C)CC3)cc1OC (stereo partly drawn) [CBK074973T] | 113% | 78.4% | 39.7% | 118% | 93.3% | 31.1% | 93.9% | 94.3% | 87.1%
